Source: patent US12338256B2, “Aza-tetracyclic oxazepine compounds and uses thereof” (Genentech, Inc., priority 2022, dated 2025)

Key:
Type in all cases: cell-based
[1] = system: AsPC-1 (homozygous mutant KRAS G12D human pancreatic cell line); assay: KRAS 3D-Cell Proliferation Assay, AsPC-1 (Example 503); details: Homo sapiens, ASPC1, 168 h, AsPC-1 3D culture, 7 days, CellTiter-Glo 3D; read-out: Prolif AsPC-1 3D ATP IC50
Procedure, shortened: (§1)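 IC50s come from a 4-parameter Hill fit of luminescence (CellTiter-Glo 3D) normalized between DMSO (0%) and 1 μM staurosporine (100%). Cells in low-attachment 3D culture, RPMI-1640 with 10% FBS, received serial compound dilutions (0.3% DMSO) after overnight and were incubated 7 days at 37 °C.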

[2] = system: HPAC (homozygous mutant KRAS G12D human pancreatic cell line); assay: KRAS 3D-Cell Proliferation Assay, HPAC (Example 503); details: Homo sapiens, HPAC, 168 h, HPAC 3D culture, 7 days, CellTiter-Glo 3D; read-out: Prolif HPAC 3D ATP IC50
Procedure, shortened: as §1

[3] = system: PC-9 (KRAS wild type human lung adenocarcinoma cell line); assay: KRAS 3D-Cell Proliferation Assay, PC-9 (Example 503); details: 168 h, PC-9 3D culture, 7 days, CellTiter-Glo 3D, read-out: Prolif PC9 3D ATP IC50
Procedure, shortened: as §1

[4] = system: H1975 (KRAS wild type human lung adenocarcinoma cell line); assay: KRAS 3D-Cell Proliferation Assay, H1975 (Example 503); details: Homo sapiens, NCI-H1975, 168 h, H1975 3D culture, 7 days, CellTiter-Glo 3D; read-out: Prolif H1975 3D ATP IC50
Procedure, shortened: as §1

SMILES	IC50 [1]	IC50 [2]	IC50 [3]	IC50 [4]
C[C@@H]1Oc2nc(-c3c(C(F)(F)F)ccc(N)c3F)c(F)c3nc(OC[C@@]45CCCN4C[C@H](F)C5)nc(c23)N2C[C@H]3CC[C@H](N3)[C@@H]12 [Compound 35, 2-fluoro-3-((5S,5aS,6S,9R)-1-fluoro-12-(((2R,7aS)-2-fluorotetrahydro-1H-pyrrolizin-7a(5H)-yl)methoxy)-5-methyl-5a,6,7,8,9,10-hexahydro-5H-4-oxa-3,10a,11,13,14-pentaaza-6,9-methanonaphtho[1,8-ab]heptalen-2-yl)-4-(trifluoromethyl)aniline]	10.6 nM	7.4 nM	9170 nM	5870 nM
C[C@@H]1Oc2nc(-c3cc(O)cc4ccccc34)c(F)c3nc(OC[C@]45CCN4CC(F)(F)C5)nc(c23)N2C[C@H]3CC[C@H](N3)[C@@H]12 [Compound 25, 4-((5S,5aS,6S,9R)-12-(((R)-3,3-difluoro-1-azabicyclo[3.2.0]heptan-5-yl)methoxy)-1-fluoro-5-methyl-5a,6,7,8,9,10-hexahydro-5H-4-oxa-3,10a,11,13,14-pentaaza-6,9-methanonaphtho[1,8-ab]heptalen-2-yl)naphthalen-2-ol]	464 nM	78.8 nM	11000 nM	10700 nM
C#Cc1cccc2cncc(-c3nc4c5c(nc(OC[C@@]67CCCN6C[C@H](F)C7)nc5c3F)N3C[C@H]5CC[C@H](N5)[C@H]3[C@H](C)O4)c12 [Compound 39, (5S,5aS,6S,9R)-2-(5-Ethynylisoquinolin-4-yl)-1-fluoro-12-(((2R,7aS)-2-fluorotetrahydro-1H-pyrrolizin-7a(5H)-yl)methoxy)-5-methyl-5a,6,7,8,9,10-hexahydro-5H-4-oxa-3,10a,11,13,14-pentaaza-6,9-methanonaphtho[1,8-ab]heptalene]	55.8 nM	35.8 nM	≥ 20000 nM	3970 nM
C[C@@H]1Oc2nc(-c3cc(N)cc(F)c3C(F)(F)F)c(F)c3nc(OC[C@@]45CCCN4C[C@H](F)C5)nc(c23)N2C[C@H]3CC[C@H](N3)[C@@H]12 [Compound 17, 3-fluoro-5-((5S,5aS,6S,9R)-1-fluoro-12-(((2R,7aS)-2-fluorotetrahydro-1H-pyrrolizin-7a(5H)-yl)methoxy)-5-methyl-5a,6,7,8,9,10-hexahydro-5H-4-oxa-3,10a,11,13,14-pentaaza-6,9-methanonaphtho[1,8-ab]heptalen-2-yl)-4-(trifluoromethyl)aniline]	1.71 nM	0.62 nM	7910 nM	1340 nM
C[C@@H]1Oc2nc(-c3cccc4cccc(Cl)c34)c(F)c3nc(OC[C@@]45CCCN4C[C@H](F)C5)nc(c23)N2C[C@H]3CC[C@H](N3)[C@@H]12 [Compound 8, (5S,5aS,6S,9R)-2-(8-chloronaphthalen-1-yl)-1-fluoro-12-(((2R,7aS)-2-fluorotetrahydro-1H-pyrrolizin-7a(5H)-yl)methoxy)-5-methyl-5a,6,7,8,9,10-hexahydro-5H-4-oxa-3,10a,11,13,14-pentaaza-6,9-methanonaphtho[1,8-ab]heptalene]	72 nM	87.3 nM	3920 nM	4310 nM
C[C@@H]1Oc2nc(-c3nc(N)c(F)cc3C(F)(F)F)c(F)c3nc(OC[C@]45CCN4CC(F)(F)C5)nc(c23)N2C[C@H]3CC[C@H](N3)[C@@H]12 [Compound 87, 6-((5S,5aS,6S,9R)-12-(((R)-3,3-Difluoro-1-azabicyclo[3.2.0]heptan-5-yl)methoxy)-1-fluoro-5-methyl-5a,6,7,8,9,10-hexahydro-5H-4-oxa-3,10a,11,13,14-pentaaza-6,9-methanonaphtho[1,8-ab]heptalen-2-yl)-3-fluoro-5-(trifluoromethyl)pyridin-2-amine]	4030 nM	1400 nM	≥ 20000 nM	20000 nM
C#Cc1cccc2cc(O)cc(-c3nc4c5c(nc(OC[C@@]67CCCN6C[C@H](F)C7)nc5c3F)N3C[C@H]5CC[C@H](N5)[C@H]3CO4)c12 [Compound 3, 5-ethynyl-4-((5aS,6S,9R)-1-fluoro-12-(((2R,7aS)-2-fluorotetrahydro-1H-pyrrolizin-7a(5H)-yl)methoxy)-5a,6,7,8,9,10-hexahydro-5H-4-oxa-3,10a,11,13,14-pentaaza-6,9-methanonaphtho[1,8-ab]heptalen-2-yl)naphthalen-2-ol]	6.72 nM	11.2 nM	≥ 20000 nM	202 nM
C[C@@H]1Oc2nc(-c3cc(N)c(F)cc3C(F)(F)F)c(F)c3nc(OC[C@@]45CCCN4C[C@H](F)C5)nc(c23)N2C[C@H]3CC[C@H](N3)[C@@H]12 [Compound 14, 2-fluoro-5-((5S,5aS,6S,9R)-1-fluoro-12-(((2R,7aS)-2-fluorotetrahydro-1H-pyrrolizin-7a(5H)-yl)methoxy)-5-methyl-5a,6,7,8,9,10-hexahydro-5H-4-oxa-3,10a,11,13,14-pentaaza-6,9-methanonaphtho[1,8-ab]heptalen-2-yl)-4-(trifluoromethyl)aniline]	5.62 nM	11.3 nM	6210 nM	2510 nM
C#Cc1cccc2cc(O)cc(-c3nc4c5c(nc(OC[C@@]67CCCN6C[C@H](F)C7)nc5c3F)N3C[C@H]5CC[C@H](N5)[C@H]3[C@H](C)O4)c12 [Compound 11, 5-ethynyl-4-((5S,5aS,6S,9R)-1-fluoro-12-(((2R,7aS)-2-fluorotetrahydro-1H-pyrrolizin-7a(5H)-yl)methoxy)-5-methyl-5a,6,7,8,9,10-hexahydro-5H-4-oxa-3,10a,11,13,14-pentaaza-6,9-methanonaphtho[1,8-ab]heptalen-2-yl)naphthalen-2-ol]	2.3 nM	2.41 nM	≥ 20000 nM	169 nM
Cc1cc(N)cc(-c2nc3c4c(nc(OC[C@]56CCN5CC(F)(F)C6)nc4c2F)N2C[C@H]4CC[C@H](N4)[C@H]2[C@H](C)O3)c1C(F)(F)F [Compound 60, 3-((5S,5aS,6S,9R)-12-(((R)-3,3-Difluoro-1-azabicyclo[3.2.0]heptan-5-yl)methoxy)-1-fluoro-5-methyl-5a,6,7,8,9,10-hexahydro-5H-4-oxa-3,10a,11,13,14-pentaaza-6,9-methanonaphtho[1,8-ab]heptalen-2-yl)-5-methyl-4-(trifluoromethyl)aniline]	3.48 nM	2.59 nM	16500 nM	720 nM
Cc1c(F)c(N)cc(-c2nc3c4c(nc(OC[C@@]56CCCN5C[C@H](F)C6)nc4c2F)N2C[C@H]4CC[C@H](N4)[C@H]2[C@H](C)O3)c1Cl [Compound 76, 4-Chloro-2-fluoro-5-((5S,5aS,6S,9R)-1-fluoro-12-(((2R,7aS)-2-fluorotetrahydro-1H-pyrrolizin-7a(5H)-yl)methoxy)-5-methyl-5a,6,7,8,9,10-hexahydro-5H-4-oxa-3,10a,11,13,14-pentaaza-6,9-methanonaphtho[1,8-ab]heptalen-2-yl)-3-methylaniline]	14.1 nM	4.62 nM	5710 nM	248 nM
Cc1c(F)c(N)cc(-c2nc3c4c(nc(OCC56CCN5C[C@H](F)C6)nc4c2F)N2C[C@H]4CC[C@H](N4)[C@H]2[C@H](C)O3)c1C(F)(F)F (stereo partly drawn) [Compound 29, 2-fluoro-5-((5S,5aS,6S,9R)-1-fluoro-12-(((3R)-3-fluoro-1-azabicyclo[3.2.0]heptan-5-yl)methoxy)-5-methyl-5a,6,7,8,9,10-hexahydro-5H-4-oxa-3,10a,11,13,14-pentaaza-6,9-methanonaphtho[1,8-ab]heptalen-2-yl)-3-methyl-4-(trifluoromethyl)aniline]	4.98 nM	7.76 nM	8190 nM	6110 nM
C=C1CN2CCC[C@@]2(COc2nc3c4c(nc(-c5cc(N)c(F)c(C)c5C(F)(F)F)c(F)c4n2)O[C@@H](C)[C@@H]2[C@@H]4CC[C@H](CN32)N4)C1 [Compound 57, 2-Fluoro-5-((5S,5aS,6S,9R)-1-fluoro-5-methyl-12-(((S)-2-methylenetetrahydro-1H-pyrrolizin-7a(5H)-yl)methoxy)-5a,6,7,8,9,10-hexahydro-5H-4-oxa-3,10a,11,13,14-pentaaza-6,9-methanonaphtho[1,8-ab]heptalen-2-yl)-3-methyl-4-(trifluoromethyl) aniline]	0.361 nM	2.59 nM	3110 nM	251 nM
Cc1c(F)c(N)cc(-c2nc3c4c(nc(OC[C@]56CCN5CC(F)(F)C6)nc4c2F)N2C[C@H]4CC[C@H](N4)[C@H]2[C@H](C)O3)c1C(F)(F)F [Compound 24, 5-((5S,5aS,6S,9R)-12-(((R)-3,3-difluoro-1-azabicyclo[3.2.0]heptan-5-yl)methoxy)-1-fluoro-5-methyl-5a,6,7,8,9,10-hexahydro-5H-4-oxa-3,10a,11,13,14-pentaaza-6,9-methanonaphtho[1,8-ab]heptalen-2-yl)-2-fluoro-3-methyl-4-(trifluoromethyl)aniline]	4.29 nM	1.89 nM	7870 nM	6710 nM
